Laboratory results taken from patent publication US20110294726A1, “ANTIBIOTIC THERAPY TO REDUCE THE LIKELIHOOD OF DEVELOPING POST-INFECTIOUS IRRITABLE BOWEL SYNDROME” (CEDARS-SINAI MEDICAL CENTER, priority 2009, published 2011).

Experiments:
C. jejuni 81-176 [1] = test: Determination of a post-infectious phenotype (stool form, % stool weight) 3 months after C. jejuni clearance; format: in vivo, Male Sprague-Dawley rats
Procedure: Male Sprague-Dawley rats (n=108) (200g) were quarantined for 10 days. Subsequently, fresh stool was collected by stroking the anus. Stool was cultured for C. jejuni on Campylobacter agar (BD Diagnostics, Franklin Lakes, N.J.). This was conducted to confirm the absence of infection or colonization of animals with C. jejuni prior to starting the study. […] In the first group (n=54), the rats were gavaged with 1 mL of a 5% solution of bicarbonate. This was given to acutely reduce gastric acidity. Subsequently, the rats were gavaged with a 1 mL suspension of 10^8 cfu/mL C. jejuni 81-176 in Campylobacter broth (C+/R− group). In the second group (n=54), the rats were gavaged with a 1 mL solution of rifaximin (200 mg) (C+/R+ group). The following day, the C+/R+ group received 3 sequential gavages. The first was another 1 mL dose of rifaximin. One hour later, they were gavaged with a 1 mL solution of 5% bicarbonate followed by a third gavage consisting of a 1 mL suspension of 10^8 cfu/mL C. jejuni 81-176 in Campylobacter broth. The following day, the C+/R+ group received a third and final gavage of 200 mg of rifaximin. After C. jejuni clearance was determined, the rats were housed for an additional 3 months (90 days). At 90 days, fresh stool was collected for 3 consecutive days. The stool was graded for consistency. To do this, a modified Bristol-like stool score was used. In this score, stool was graded as normal (1), soft and poorly formed (2), or watery (3). The stool was then weighed and air dried for 5 days followed by oven drying at 160° C. for 1 hour. The stool was reweighed and a % stool wet weight was determined. After completion of the study, the rats were euthanized by CO2 asphyxiation, weighed, and a laparotomy was performed. During the laparotomy, predefined segments of duodenum, jejunum, ileum, left colon, and rectum were resected, as previously described (12). Subsequently, the contents of each segment were cultured for the presence of C. jejuni. At the end of 3 months, the stool form for 3 days was averaged and then the two groups were compared. In another analysis, the number of days with normal stool in 3 days was determined and compared between groups. Finally, the variance in stool form over 3 days was also determined and compared between groups. The comparison was done by Wilcoxon rank-sum test.

C. jejuni 81-176 [2] = test: Tracking the acute colonization with C. jejuni in stool of gavaged rats; format: in vivo, Male Sprague-Dawley rats
Procedure: Male Sprague-Dawley rats (n=108) (200g) were quarantined for 10 days. Subsequently, fresh stool was collected by stroking the anus. Stool was cultured for C. jejuni on Campylobacter agar (BD Diagnostics, Franklin Lakes, N.J.). This was conducted to confirm the absence of infection or colonization of animals with C. jejuni prior to starting the study. […] In the first group (n=54), the rats were gavaged with 1 mL of a 5% solution of bicarbonate. This was given to acutely reduce gastric acidity. Subsequently, the rats were gavaged with a 1 mL suspension of 10^8 cfu/mL C. jejuni 81-176 in Campylobacter broth (C+/R− group). In the second group (n=54), the rats were gavaged with a 1 mL solution of rifaximin (200 mg) (C+/R+ group). The following day, the C+/R+ group received 3 sequential gavages. The first was another 1 mL dose of rifaximin. One hour later, they were gavaged with a 1 mL solution of 5% bicarbonate followed by a third gavage consisting of a 1 mL suspension of 10^8 cfu/mL C. jejuni 81-176 in Campylobacter broth. The following day, the C+/R+ group received a third and final gavage of 200 mg of rifaximin. After completion of the gavage, fresh stool was collected daily from all rats (both groups) and cultured for the presence of C. jejuni on Campylobacter agar. The number of days to first detectable C. jejuni in stool was recorded. Once colonization was noted, daily stool was cultured until 2 consecutive days with no detectable C. jejuni was observed. This was recorded as the time to C. jejuni clearance. In the post-infectious phase, the time to initial colonization, time for clearance and total duration of shedding were determined and compared between the C+/R− and C+/R+ groups. This was compared by Wilcoxon rank-sum test.

Shigella = settings: humans, recent study (16); cited from earlier work

CO[C@H]1/C=C/O[C@@]2(C)Oc3c(C)c(O)c4c(O)c(c5c(nc6cc(C)ccn65)c4c3C2=O)NC(=O)/C(C)=C\C=C\[C@H](C)[C@H](O)[C@@H](C)[C@@H](O)[C@@H](C)[C@H](OC(C)=O)[C@@H]1C [rifaximin]
Average % of stool dry weight (C. jejuni 81-176 [1]; 3 months after clearance, 3 day average, P NS): 61.1 +/− 3.8%
Daily variability of Dry Weight (C. jejuni 81-176 [1]; 3 months after clearance, over 3 days, P<0.01): 4.1 +/− 2.3
Number of bowel movements normal in form out of 3 days (FIG. 2, in words) (C. jejuni 81-176 [1]; C+/R+ versus C+/R−, 3 months after clearance): closer to having perfectly normal bowel function
Daily Variability of Stool Consistency (C. jejuni 81-176 [1]; over 3 days, 3 months after clearance, P<0.01): .24 +/− 0.5
Long term effects of C. jejuni on the bowel (in words) (C. jejuni 81-176 [1]; rifaximin prophylaxis, stool form and % wet weight): reduced the long term effects of C. jejuni on the bowel
Average Stool Consistency (Based on Bristol Stool Scale) (C. jejuni 81-176 [1]; score 1 normal, 2 soft and poorly formed, 3 watery, 3 day average, 3 months after clearance, P<0.00001): 1.1 +/− 0.3
Longest colonization (C. jejuni 81-176 [2]; C+/R+ group): 21 days
Rats with at least one day of detectable C. jejuni in stool (percent) (C. jejuni 81-176 [2]; C+/R+ group of 54 rats, P=0.016 vs C+/R−): 98%
Rats with at least one day of detectable C. jejuni in stool (number) (C. jejuni 81-176 [2]; of 54 rats in the C+/R+ group, P=0.016 vs C+/R−): 53 rats
Detection of C. jejuni in stool in the acute phase (in words) (C. jejuni 81-176 [2]; rifaximin prophylaxis, rats): did not prevent C. jejuni from being detected in stool
Time to first detectable C. jejuni (C. jejuni 81-176 [2]; stool culture, number of days after gavage, rifaximin 200 mg gavage on 3 days around inoculation, P<0.0001 vs C+/R−): 1.3 ± 0.4
Prevention of illness by prophylaxis of a Shigella infection (in words) (Shigella): able to prevent illness
